Test results taken from article PMC4057637, “Efficacy of novel antibacterial compounds targeting histidine kinase YycG protein” (Applied Microbiology and Biotechnology, 2014).
Values after ≈ are worked out from the molar mass of the structure shown.

Tests used:
[1] = test system: S. epidermidis ATCC 35984; assay: MIC and MBC assays, broth dilution; format: cell-based; details: for MIC/MBC / MBC: S. epidermidis ATCC 35984; for MIC: ATCC35984, S. epidermidis ATCC 35984, MH broth
Method: (§1) MICs of the derivatives for S. epidermidis and S. aureus were determined by the broth dilution method according to the National Committee for Clinical Laboratory (NCCLS) recommendations (Turnidge and Bordash [2007]). Twofold dilutions of the derivatives in tubes containing 4 ml of Mueller-Hinton broth (MH, Sigma, Germany) were made to concentrations from 200 to 0.39 μM. Overnight cultures of the bacteria were adjusted to the 0.5 McFarland standards and inoculated 1:200 into the MH broth and then incubated at 37 °C for 16–20 h. The lowest concentration inhibiting visible growth of the bacteria was recorded as minimal inhibitory concentration (MIC).

Cytotoxicity, MTT assay = format: cell-based; details: African green monkey, Vero 76 cells
Method: Vero 76 cells (African green monkey cells) were used to determine the cytotoxicity of the derivatives with the Cell Proliferation Kit I (MTT) (Roche, Indianapolis, USA). The Vero cells were grown in Dulbecco’s modified Eagle’s medium (DMEM), supplemented with 5 % fetal calf serum, 100 U/ml penicillin, […] streptomycin, and 2 mM L-glutamine. After culturing in 5 % CO2 at 37 °C for 48 h, the cells were harvested and dispensed into 96-well cell culture plates containing 5 × 10^4 cells per well in 100 μl. The cells were co-incubated with serial twofold dilutions of derivatives from 200 to 6.25 μM (six different concentrations) for 24 h at 37 °C in 5 % CO2. Then, 10 μl of the MTT labeling reagent (final concentration 0.5 mg/ml) was added to each well and incubated for 4 h. The solubilization solution (100 μl per well) was added to dissolve the purple formazan salts generated in the viable cells, and the absorbance of each well was measured at 595 nm. Cells treated with the solvent (0.1 % DMSO) were used as a negative control and the cells cultured only with DMEM medium served as a blank control. The inhibitory rate was calculated as follows: Inhibitoryrate%=Ocontrol−ODtest/ODcontrol×100
CC50 was defined as the concentration of the derivatives that inhibited the Vero cell growth by 50 % and was calculated with the Origin v8.0 software (Origin Lab, Northampton, USA) (Qin et al. [2006]).

Clinical MRSA strains = assay: MIC, broth dilution; format: cell-based, S. aureus; details: Staphylococcus aureus; Clinical MRSA strains (n = 5)
Method: Bacterial strains S. epidermidis ATCC 12228 (nonbiofilm forming), S. epidermidis ATCC 35984 (biofilm forming), S. aureus ATCC 49230, and S. aureus ATCC 25923 were from the American Type Culture Collection (ATCC, Manassas, USA) and were cultured in tryptic soy broth medium (TSB; Oxoid Ltd., Basingstoke, England). Ten clinical methicillin-resistant staphylococcal isolates, five MRSA isolates and five MRSE isolates, were collected from Huadong Teaching Hospital in Shanghai. Escherichia coli ATCC 25922 was grown in Luria-Bertani (LB) broth. The six compounds used in this study (H2-38, H2-39, H2-57, H2-60, H2-74, and H2-81) were screened from 56 derivatives of compound 2 in which the functional groups were modified, but the thiazolidine core structure was unchanged. The compounds were synthesized by Nanjing University of Technology. To generate the derivative compounds, halogen atoms were introduced into 4-thiazolidinone compounds that contained carboxylic acid moieties of phenoxy-acetic acid, (5-vinyl-furan-2-yl)-benzoic acid or (5-vinyl-thiophene-2-yl)-benzoic acid. The derivatives were dissolved in dimethyl sulfoxide (DMSO; Amresco, USA) to 200 mM for use as stock solutions.
as §1

[2] = test system: S. epidermidis ATCC 35984; assay: Derivatives combined with vancomycin or cefazolin (FIC index); format: cell-based; details: for MIC: Staphylococcus epidermidis, ATCC35984, line paired with vancomycin, read-out: MIC Derivative alone; for MIC Derivative alone: line paired with cefazolin
Description: Combination antimicrobial therapy is widely used to take advantage of different mechanisms of action. It may potentiate the effect of individual antimicrobial agents by synergic action (Bijnsdorp et al. [2011]; Cokol et al. [2011]). The glycopeptide antibiotics, such as vancomycin, can bind the peptidoglycan side chains in the cell wall and prevent cross-linking during cell wall synthesis. Vancomycin has been considered to be one of the most reliable therapeutic agents against staphylococcal infections, but it is unable to clear biofilms even at high concentration (128 mg/l) (Climo et al. [1999]; Darouiche et al. [1994]; Tenover et al. [2001]). […] YycGF also plays an important role in the synthesis of peptidoglycan in B. subtilis and S. aureus (Bisicchia et al. [2007]; Dubrac and Msadek [2004]). In a preliminary study, we assessed the effects of the combined application of the derivatives with vancomycin and cefazolin against S. epidermidis ATCC 35984 according to the method of Odds ([2003]) (Cottagnoud et al. [2003]). […] No antagonism was observed between the derivatives and vancomycin or cefazolin (Table S1).
17 Table S1. The derivatives combined with vancomycin or cefazolin against S. epidermidis
Derivatives Antibiotics MIC (mg/L) FICIa Synergyb
Derivative Antibiotic In combination
alone alone (Derivative/Antibiotic)
19 a The FICI was calculated as FIC indexes= (MICderivative A in combination/MICderivative A
20 alone)+(MICantibiotic B in combination/MIC antibiotic B alone).
21 b The interaction between the two antibacterials is noted as follows: FIC index≤0.5,
22 Synergy (+); 0.5<FIC index≤4 (-), No interaction; FIC≥4.0, Antagonism.

[3] = test system: mature (24-h-old) biofilms of S. epidermidis ATCC 35984; assay: Bacterial viability in mature biofilms by CLSM with Live/Dead staining; format: cell-based; details: 4 × MIC, 16 h, SYTO9/PI
Method: A diluted overnight culture of the bacteria was inoculated into cell culture glass bottom dishes (WPI, USA) and incubated at 37 °C for 24 h. […] The biofilms were washed with PBS and stained with SYTO9 and propidium iodide (PI), both of which were used at a concentration of 1 μM. SYTO9-stained live cells and PI-stained cells dead in biofilms were visualized by a Leica TCS SP5 confocal laser scanning microscope with a ×63 1.4-NA oil immersion objective. Three-dimensional biofilm images were created by IMARIS 7.0.0 software (Bitplane).

[4] = Staphylococcus epidermidis, ATCC35984
[5] = cefazolin combined with the labelled derivative
[6] = derivative combined with cefazolin
[7] = derivative combined with vancomycin
[8] = vancomycin combined with the labelled derivative

| Structure (SMILES) | MIC/MBC [1] | MBC [1, 4] | CC50 at 24 h (Cytotoxicity, MTT assay) | MIC (Clinical MRSA strains) | MIC [2] | MIC In combination: antibiotic [2, 5] | FICI ([2]; derivative + cefazolin) | FICI ([2]; derivative + vancomycin) | MIC In combination: derivative [2, 6] | MIC In combination: derivative [2, 7] | MIC In combination: antibiotic [2, 8] | proportion of viable cells in mature biofilms [3] | interaction with vancomycin or cefazolin (in words) ([2]; S. epidermidis ATCC 35984, preliminary study) | MIC Derivative alone [2] | MBC [1] | MIC ([1]; Staphylococcus epidermidis) |
| --- | --- | --- | --- | --- | --- | --- | --- | --- | --- | --- | --- | --- | --- | --- | --- | --- |
| O=C(O)c1ccc(-c2ccc(C=C3SC(=Nc4ccc(F)cc4)N(c4ccc(F)cc4)C3=O)s2)cc1 [H2-60, 4-{5-{{3-(4-fluorophenyl)-2-[(4-fluorophenyl)imino]-4-oxothiazolidin-5-ylidene}methyl}thiophene-2-yl}benzoic acid] | 1/8 | 12.5 µM (≈ 6.48 µg/mL) | > 200 µM | 1.5 to 3.1 µM (≈ 0.778 to 1.61 µg/mL) | 1.7 µg/mL | 0.25 mg/L | 0.53 | 0.56 | 0.85 mg/L | 0.85 mg/L | 0.25 mg/L | 14% | – | – | – | – |
| O=C(O)c1ccc(-c2ccc(/C=C3\S/C(=N\c4ccccc4)N(c4ccc(F)cc4)C3=O)s2)cc1 [H2-81, 4-{5-{{3-(4-fluorophenyl)-2-[(4-phenyl)imino]-4-oxothiazolidin-5-ylidene}methyl}thiophene-2-yl}benzoic acid] | 1/4 | 6.3 µM (≈ 3.15 µg/mL) | > 200 µM | 1.5 µM (≈ 0.751 µg/mL) | 0.7 µg/mL | 1 mg/L | 0.38 | 0.5 | 0.18 mg/L | 0.18 mg/L | 1 mg/L | 12.3% | synergistic effect | 0.7 mg/L | – | – |
| CCc1ccccc1/N=C1\S/C(=C\c2ccc(OCC(=O)O)c(OC)c2)C(=O)N1c1ccccc1CC [Compound 2, {2-{4-{3-(2-ethylphenyl)-2-[(2-ethylphenyl)imino]-4-oxothiazolidin-5-ylidene}methyl}-2-methoxyphenoxy}acetic acid] | 1/4 | 100 µM (≈ 51.7 µg/mL) | 50 µM | 25 to 50 µM (≈ 12.9 to 25.8 µg/mL) | – | – | – | – | – | – | – | – | – | – | 100.0 µM (≈ 51.7 µg/mL) | 25 µM (≈ 12.9 µg/mL) |
| O=C(O)COc1ccc(C=C2SC(=Nc3ccc(Cl)cc3)N(c3ccc(Cl)cc3)C2=O)cc1 [H2-74, 2-{4-{[3-(4-chlorophenyl)-2-[(4-chlorophenyl)imino]-4-oxothiazolidin-5-ylidene}methyl}phenoxy}acetic acid] | 1/16 | 25 µM (≈ 12.5 µg/mL) | > 200 µM | 3.1 to 6.3 µM (≈ 1.55 to 3.15 µg/mL) | 0.8 µg/mL | 1 mg/L | 0.63 | 0.38 | 0.4 mg/L | 0.2 mg/L | 0.5 mg/L | 32.5% | – | 0.8 mg/L | – | – |
| O=C(O)c1ccc(-c2ccc(C=C3SC(=Nc4ccc(Cl)cc4)N(c4ccc(Cl)cc4)C3=O)o2)cc1 [H2-39, 4-{5-{{3-(4-chlorophenyl)-2-[(4-chlorophenyl)imino]-4-oxothiazolidin-5-ylidene}methyl}furan-2-yl}benzoic acid] | 1/8 | 12.5 µM (≈ 6.69 µg/mL) | > 200 µM | 1.5 to 3.1 µM (≈ 0.803 to 1.66 µg/mL) | 0.8 µg/mL | 0.25 mg/L | 0.53 | 1.13 | 0.4 mg/L | 0.8 mg/L | 0.5 mg/L | 55.6% | – | 0.8 mg/L | – | – |
| O=C(O)c1cccc(-c2ccc(C=C3SC(=Nc4ccc(Cl)cc4)N(c4ccc(Cl)cc4)C3=O)o2)c1 [H2-38, 3-{5-{{3-(4-chlorophenyl)-2-[(4-chlorophenyl)imino]-4-oxothiazolidin-5-ylidene}methyl}furan-2-yl}benzoic acid] | 1/8 | 12.5 µM (≈ 6.69 µg/mL) | > 200 µM | 1.5 to 3.1 µM (≈ 0.803 to 1.66 µg/mL) | 0.8 µg/mL | 0.5 mg/L | 0.56 | 0.63 | 0.4 mg/L | 0.4 mg/L | 0.5 mg/L | 42.3% | – | 0.8 mg/L | – | – |
| O=C(O)c1ccc(-c2ccc(/C=C3\S/C(=N\c4ccccc4)N(c4ccc(Cl)cc4)C3=O)o2)cc1 [H2-57, 4-{5-{{3-(4-chlorophenyl)-2-[(4-phenyl)imino]-4-oxothiazolidin-5-ylidene}methyl}furan-2-yl}benzoic acid] | 1/4 | 12.5 µM (≈ 6.26 µg/mL) | > 200 µM | 1.5 to 3.1 µM (≈ 0.751 to 1.55 µg/mL) | 1.7 µg/mL | 0.25 mg/L | 0.53 | 1.13 | 0.85 mg/L | – | 0.5 mg/L | 17.1% | – | – | – | ≤ 3.1 µM |
